Laboratory results reported in paper PMC7116364 (Science translational medicine, 2020).
Values joined by “and” are separate entries in the source; they are usually repeats but may differ in a detail not shown here. Equal values may be shown once. Read-outs that look alike come from different tables or passages of the source.

Key:
[1] = test system: procoagulant activity of six Echis venoms; format: biochemical; conditions: for IC50: read-out: IC50, neutralization of venom-induced plasma clotting
E. pyramidum venom [2] = assay: coincubation model of envenoming; set-up: species or system male CD-1 mice; conditions: mouse, in vivo, iv
[3] = humans, cited from earlier work
[4] = rats and rabbits, first 6 h, after oral dosing; cited from earlier work
[5] = test system: E. ocellatus, E. pyramidum and E. carinatus venoms; set-up: species or system male CD-1 mice; conditions: mouse, in vivo, ip
[6] = test system: PLA2 activity of fractionated E. ocellatus venom; format: biochemical
E. ocellatus venom [7] = assay: challenge and treat model using oral DMPS, E. ocellatus; set-up: species or system male CD-1 mice; conditions: mouse, in vivo
[8] = test system: serine protease activity of fractionated E. ocellatus venom; format: biochemical
E. ocellatus venom [9] = assay: neutralization of local hemorrhage; set-up: species or system male CD-1 mice; conditions: mouse, in vivo
[10] = test system: venom-induced plasma clotting (Echis venoms, calcium-independent); format: biochemical; conditions: for IC50: read-out: IC50, venom-induced plasma clotting in the absence of calcium
[11] = test system: venoms of E. pyramidum and E. carinatus; set-up: species or system mice; conditions: mouse, in vivo, iv
[12] = drug-only / antivenom-only control groups; conditions: 600 µg DMPS orally, 24 h
E. pyramidum venom [13] = test system: E. pyramidum venom; set-up: species or system male CD-1 mice; conditions: mouse, in vivo, ip
[14] = test system: E. carinatus (India) venom; assay: coincubation model of envenoming; set-up: species or system male CD-1 mice; conditions: mouse, in vivo, iv
[15] = test system: venom SVMPs from six saw-scaled vipers; format: biochemical; conditions: read-out: IC50, neutralization of venom SVMP activity
[16] = rabbits and dogs, intravenous or oral administration for 10-26 weeks; cited from earlier work
[17] = test system: E. ocellatus venom (Nigeria); assay: coincubation model of envenoming; set-up: species or system male CD1 mice; conditions: mouse, in vivo, iv
E. ocellatus venom [18] = test system: E. ocellatus venom; set-up: species or system male CD-1 mice; conditions: mouse, in vivo, ip
[19] = test system: E. carinatus (India) venom; set-up: species or system male CD-1 mice; conditions: mouse, in vivo, ip
E. ocellatus venom [20] = test system: E. ocellatus venom; set-up: species or system mice; conditions: mouse, in vivo, iv
[21] = test system: Indian E. carinatus venom; format: biochemical; conditions: read-out: IC50, plasma assay
[22] = test system: cleavage of recombinant human prothrombin by saw-scaled viper venom; format: biochemical, Echis; conditions: lower dose (150 µM)

O=S(=O)(O)CC(S)CS (stereo not shown) [DMPS, 2,3-dimercapto-1-propanesulfonic acid]
IC50 [1]: 1.18 to 27.7 µM | protection against lethality (E. pyramidum venom [2]): complete protection | time to peak plasma concentrations ([3]; after ingestion): 3 to 4 h | time at which the drug can be detected in the plasma ([3]; after oral administration): 30 to 45 min | clinical half-life [3]: ~ 20 h | fraction excreted in the urine / eliminated within 6 h [4]: 85-89% and > 85% | TAT concentrations, animals not protected by DMPS [5]: > 400 ng/mL | TAT concentrations, animals that survived for the duration of the experiment (average) [5]: ~ 200 ng/ml | inhibition of PLA2 activity [6]: unable to inhibit | echinocytes in blood films (E. ocellatus venom [7]): markedly reduced the number of echinocytes | prolonged animal survival compared to the venom-only controls (E. ocellatus venom [7]): ~ 10 h | survival at the end of the experiment (24 h) (E. ocellatus venom [7]): 2 of 5 | inhibition of serine protease activity [8]: unable to inhibit | hemorrhagic lesion size (average) (E. ocellatus venom [9]): 1.43 mm^2 | IC50 [10]: 2.18 to 7.55 µM | RBC morphology [11]: some protection | signs of toxicity (survival, behavioral and post-mortem observations) [12]: did not display any signs of toxicity in mice | survival for the duration of the experiment (24 h) (E. pyramidum venom [13]): two survived for the duration of the experiment (24 h) | protection against lethality [14]: two deaths | time of death [14]: 89 min and 110 min | IC50 [15]: 1.64 to 3.4 µM | changes in the concentrations of iron or calcium [16]: no significant changes in the concentrations of iron or calcium | plasma thrombin-antithrombin (TAT) concentrations [17]: 170 to 252 ng/mL | survival [17]: survived until the end of the experiment (6 h) | prolonged animal survival compared to the venom-only controls (E. ocellatus venom [18]): ~ 17 h | survival to the end of the experiment (24 h) (E. ocellatus venom [18]): two of the five experimental animals survived | time of death (E. ocellatus venom [18]): 12.6 to 24 h and 12.6 h | effect on lethality compared with the venom-only control [19]: slight delay in lethality | RBC morphology (E. ocellatus venom [20]): fully rescued normal RBC morphology

O=C(O)[C@@H](S)[C@@H](S)C(=O)O [DMSA, dimercaptosuccinic acid]
IC50 [1]: 18.8 to 147 µM | IC50 [15]: 19.3 to 35.1 µM | plasma thrombin-antithrombin (TAT) concentrations [17]: 300 to 666 ng/mL | survival [17]: three of the five experimental animals survived

O=C(O)CN(CCN(CC(=O)O)CC(=O)O)CC(=O)O [EDTA]
inhibition of venom activity in the plasma assay [1]: did not extensively inhibit venom activity | IC50 [21]: 2.18 µM | inhibition of venom-induced plasma clotting in the absence of calcium ([10]; no calcium): effective at inhibiting venom-induced plasma clotting | IC50 [10]: 4.89 to 253 µM | IC50 [15]: 2.25 to 4.43 µM | protection of prothrombin against cleavage, comparison [22]: outperformed DMPS and DMSA

OCC(S)CS (stereo not shown) [dimercaprol]
IC50 [1]: 0.14 to 1.36 µM | protection against lethality (E. pyramidum venom [2]): two deaths | IC50 [10]: 0.49 to 14 µM | protection against lethality [14]: complete protection | IC50 [15]: 0.04 to 0.18 µM | plasma thrombin-antithrombin (TAT) concentrations [17]: 40 to 50 ng/mL | survival [17]: survived until the end of the experiment (6 h) | survival to the end of the experiment (24 h) (E. ocellatus venom [18]): two experimental animals also survived | time of death (E. ocellatus venom [18]): 1.85 h and 2.08 h and 2.5 h | protection of prothrombin against cleavage, comparison [22]: outperformed DMPS and DMSA
